The values below come from patent US20070270332A1, “METHODS AND ASSAYS USEFUL IN THE TREATMENT OF ALCOHOL DEPENDENCE OR ALCOHOL ABUSE” (priority 1998, published 2007).

Read-outs that look alike come from different tables or passages of the source. A value given as a limit tells only on which side of the number the result lay.

The test system of assay [1] is alcohol preferring Syrian golden hamsters. The assay can be described thus: Ethanol intake suppression (antidipsotropic activity) in alcohol preferring Syrian golden hamsters. The settings on record: for ethanol intake suppression: equivalent doses (0.07 meq/hamster/day), FIG. 1; for ETOH Intake Suppression, %: ethanol-preferring golden hamsters, equivalent doses, i.p.; for suppression of hamster ethanol intake: i.p. dose or equivalent doses.

Assay [2] deals with hamster liver mitochondria (MAO/ALDH pathway, 5-HT as substrate). The assay can be described thus: Mitochondria-catalyzed 5-HT metabolism (5-HIAL, 5-HIAA, 5-HT depletion), hamster liver mitochondria. The class given is biochemical. The settings on record: for inhibition of 5-HIAA formation: isolated hamster liver mitochondria. From the text: (§1) Hamster liver mitochondrial preparations were obtained by the well-known method of Johnson & Lardy (see John, D. & Lardy, H. (1967) Meth. Enzymol. 10, 94). The integrity of these mitochondrial preparations, evaluated by measuring their latent glutamate dehydrogenase activity according to the methods of Beaufay, H., and Bendall, D. S., Baudhuin, P. & deDuve, C. (1959) J. Cell Biol. 73, 623-628 before and after the metabolic study, were over 97% and 93%, respectively.
Reactions were initiated by the addition of mitochondria and allowed to proceed in a 37° C. shaking water bath for 30 min. Reactions were terminated by the addition of 0.05 ml each of ice-cold 1 M HClO4 and 10 mM EDTA. The samples were kept on ice for 1 hour followed by centrifugation (12,000 rpm) in a microcentrifuge (Microspin 24S, Sorvall) for 15 min. DA, 5-HT, and their major metabolites in the supernatant were analyzed directly by HPLC.
The HPLC system used in this study consisted of a BAS Sample Sentinel Autosampler with refrigerated (4° C.) sample compartment, PM80 solvent delivery system, and a LC-26 on-line degasser. The detector is a LC-4C amperometric controller with a CC-5 cross-flow thin-layer (0.005″) electrochemical cell composed of glassy carbon and silver/silver chloride reference electrode (Bioanlytical Systems, Inc., West Lafayette, Ind.). For routine analysis, the potential and sensitivity were set at 650 mV and 20 nA full scale, respectively. Column temperature was maintained with a Waters Temperature Control Module (Waters, Milford, Mass.). DA and 5-HT were analyzed on a BAS phase II ODS-3, 3 μm, 3.2×100 mm column. […] DOPAL, DOPAC, 5-HIAL and 5-HIAA were analyzed on a Beckman ultrasphere ODS-5, 5μ, 4.6×250 mm column. […] Data were collected and analyzed with a Nelson data collection system (Perkin-Elmer) or a Waters 740 Data Module. The effect of a test compound on 5-HIAL or DOPAL accumulation measured at five different concentrations were averaged and presented as % of control.

Assay [3] deals with hamster liver mitochondria (MAO/ALDH pathway, DA as substrate). The assay can be described thus: Mitochondria-catalyzed DA metabolism (DOPAC formation), hamster liver mitochondria. It counts as biochemical. The settings on record: isolated hamster liver mitochondria.
Description: as §1
Reactions were initiated by the addition of mitochondria and allowed to proceed in a 37° C. shaking water bath for 30 min. Reactions were terminated by the addition of 0.05 ml each of ice-cold 1 M HClO4 and 10 mM EDTA. […] DA, 5-HT, and their major metabolites in the supernatant were analyzed directly by HPLC.
The HPLC system used in this study consisted of a BAS Sample Sentinel Autosampler with refrigerated (4° C.) sample compartment, PM80 solvent delivery system, and a LC-26 on-line degasser. […] DA and 5-HT were analyzed on a BAS phase II ODS-3, 3 μm, 3.2×100 mm column. […] DOPAL, DOPAC, 5-HIAL and 5-HIAA were analyzed on a Beckman ultrasphere ODS-5, 5μ, 4.6×250 mm column. […] Data were collected and analyzed with a Nelson data collection system (Perkin-Elmer) or a Waters 740 Data Module. The effect of a test compound on 5-HIAL or DOPAL accumulation measured at five different concentrations were averaged and presented as % of control.

Another assay deals with rats. The settings on record: cited from earlier work.
The target of assay [4] is T1, Human Mitochondrial ALDH (ALDH-2) (Homo sapiens, UniProt P05091).
T1 construct: Human, hamster, and rat liver mitochondrial and cytosolic ALDH isozymes were purified as described in Klyosov; from tissue; host or cells: human liver
T1 sequence (P05091 18-517): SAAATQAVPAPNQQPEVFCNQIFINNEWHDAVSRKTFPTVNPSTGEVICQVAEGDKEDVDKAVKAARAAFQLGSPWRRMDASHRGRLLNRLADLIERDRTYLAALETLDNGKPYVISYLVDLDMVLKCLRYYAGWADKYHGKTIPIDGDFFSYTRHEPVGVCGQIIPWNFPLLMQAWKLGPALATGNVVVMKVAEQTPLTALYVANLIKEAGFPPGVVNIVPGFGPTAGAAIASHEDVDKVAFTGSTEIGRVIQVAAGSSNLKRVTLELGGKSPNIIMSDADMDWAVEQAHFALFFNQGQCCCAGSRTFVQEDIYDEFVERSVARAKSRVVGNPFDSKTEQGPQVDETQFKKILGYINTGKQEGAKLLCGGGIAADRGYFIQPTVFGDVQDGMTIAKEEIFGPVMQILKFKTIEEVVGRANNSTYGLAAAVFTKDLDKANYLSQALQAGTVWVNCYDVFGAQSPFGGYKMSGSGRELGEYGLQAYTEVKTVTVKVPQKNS
The settings on record: literature; cited from earlier work.

In assay [5] the target is T1, Human Mitochondrial ALDH (ALDH-2). The assay can be described thus: Inhibition of human mitochondrial ALDH (ALDH-2), competitive and noncompetitive inhibition constants. It counts as biochemical. The settings on record: for ALDH-2 inhibitory potency, in words: comparison with daidzin, daidzein or another compound.
Description: Human, hamster, and rat liver mitochondrial and cytosolic ALDH isozymes were purified as described in […] . and Keung, W. […] Stock solutions of all water soluble substrates and test compounds were made in Milli-Q water and all others were in methanol. […] The kinetic parameters Km and Vmax for cytosolic ALDHs have been determined from Lineweaver-Burk plots derived from duplicate determinations of initial velocities whereas those for the mitochondrial isozymes were determined from progress kinetic curves in accordance with the teachings of […] .
The test system of the next assay is rat liver mitochondria. The assay can be described thus: Mitochondria-catalyzed 5-HIAA formation, rat liver mitochondria. The settings on record: same concentration range.
The mark [6] stands for this setting: human mitochondrial ALDH, read-out: ALDH-2 Ki (competitive inhibition constant).
The mark [7] stands for this setting: human mitochondrial ALDH, read-out: ALDH-2 αKi (noncompetitive inhibition constant).

As for `O=c1c(-c2ccc(O)cc2)coc2cc(O)ccc12` [Compound 1, daidzein], in assay [1], the ethanol intake suppression is listed as −30%; the “ETOH Intake Suppression, %” value came to 32%; the “suppression of hamster ethanol intake” value is 32%.
For `O=c1c(-c2ccc(O)cc2)coc2cc(O[C@@H]3O[C@H](CO)[C@@H](O)[C@H](O)[C@H]3O)ccc12` [Compound 2, daidzin], the “effect on mitochondria-catalyzed 5-HT depletion” value in assay [2] (at concentrations that significantly inhibit 5-HIAA formation) is “little or no effect”. In assay [2], the “inhibition of 5-HIAA formation” value is listed as “potently inhibit the formation of 5-hydroxyindole-3-acetic acid (5-HIAA)”. Besides, in assay [1], the ethanol intake suppression is over 60%; the “ETOH Intake Suppression, %” value turned out to be 64%; the “suppression of hamster ethanol intake” value came to 64%. Further, the “inhibition of DOPAC formation” value in assay [3] is “potently inhibit”. The “suppression of ethanol consumption in rats” value in the assay with rats is “confirmed”. Moreover, the “inhibition of human mitochondrial aldehyde dehydrogenase (ALDH-2)” value in assay [4] is “potent and selective inhibitor”.
Regarding `O=C(O)CCCCCOc1ccc2c(=O)c(-c3ccc(O)cc3)coc2c1` [Compound 3, 7-O-[ω-carboxypentyl]-daidzein], in assay [1], the “ETOH Intake Suppression, %” value is 70% and the “suppression of hamster ethanol intake” value is “about 70%”.
Take `O=C(O)CCCCCCOc1ccc2c(=O)c(-c3ccc(O)cc3)coc2c1` [Compound 4, 7-O-[ω-carboxyhexyl]-daidzein]: in assay [1], the “ETOH Intake Suppression, %” value is recorded as 69%. The “suppression of hamster ethanol intake” value in assay [1] is listed as “about 70%”. Besides, the Ki in assay [5] (setting [6]) is 9 nM; in assay [5] (setting [7]), 140 nM.
As to `O=C(O)CCCCCCCCCOc1ccc2c(=O)c(-c3ccc(O)cc3)coc2c1` [Compound 5], the “ETOH Intake Suppression, %” value in assay [1] is on record as 84%. Further, the Ki in assay [5] (setting [6]) came to 4 nM; in assay [5] (setting [7]), 50 nM.
Regarding `O=C(O)CCCCCCCCCCOc1ccc2c(=O)c(-c3ccc(O)cc3)coc2c1` [Compound 6], in assay [1], the “ETOH Intake Suppression, %” value stood at 86%.
Take `CCOc1ccc2c(=O)c(-c3ccc(O)cc3)coc2c1` [Compound 7]: the ethanol intake suppression entry in assay [1] is given as “did not suppress ethanol intake”. Moreover, the Ki in assay [5] (setting [6]) was determined as 35 nM; in assay [5] (setting [7]), 560 nM.
Turning to `O=c1c(-c2ccc(O)cc2)coc2cc(OCCC3OCCCO3)ccc12` [Compound 8], in assay [1], the ethanol intake suppression is on record as −30% and the “ETOH Intake Suppression, %” value is 32%.
For `O=c1c(-c2ccc(O)cc2)coc2cc(OCCCCCCBr)ccc12` [Compound 10, 7-O-(6-bromohexyl)-daidzein], in assay [1], the ethanol intake suppression result is recorded as “only marginally active” and the “ETOH Intake Suppression, %” value came out at 14%. The Ki in assay [5] (setting [7]) turned out to be 70 nM. Further, the Ki in assay [5] (read-out: Ki, human ALDH-2) worked out at 3 nM.
Consider `CC[N+](CC)(CC)CCCCCCOc1ccc2c(=O)c(-c3ccc(O)cc3)coc2c1` [Compound 11, 7-O-(triethyl-6-aminohexyl)-daidzein], for which the Ki stood at 80 nM in assay [5] (setting [7]) and 5 nM in assay [5] (read-out: Ki, human ALDH-2).
Consider `NCCCCCCOc1ccc2c(=O)c(-c3ccc(O)cc3)coc2c1` [Compound 13, 7-O-(6-aminohexyl)-daidzein], for which the ethanol intake suppression result in assay [1] is “did not suppress ethanol intake”. Besides, the Ki in assay [5] (setting [6]) worked out at 36 nM; in assay [5] (setting [7]), 600 nM.
With `CC(Br)CCCCC(=O)Oc1ccc2c(=O)c(-c3ccc(O)cc3)coc2c1` (centres unmarked) [Compound 14, 7-O-daidzein-6-bromoheptanoate], the “ALDH-2 inhibitory potency, in words” value in assay [5] is on record as “less potent than 7-O-(6-bromohexyl)-daidzein”. Besides, the Ki is 20 nM in assay [5] (setting [6]) and 260 nM in assay [5] (setting [7]).
Turning to `CC[N+](CC)(CC)CCOc1ccc2c(=O)c(-c3ccc(O)cc3)coc2c1` [Compound 15, 7-O-(triethyl-6-aminoethyl)-daidzein], the Ki stood at 80 nM in assay [5] (setting [6]) and 1600 nM in assay [5] (setting [7]).
With `O=C(CCl)Oc1ccc2c(=O)c(-c3ccc(O)cc3)coc2c1` [Compound 16, 7-O-daidzein-2-chloroacetate], the “ALDH-2 inhibitory potency, in words” value in assay [5] is “less potent inhibitors relative to daidzin”. For the same compound, the Ki in assay [5] (setting [6]) is 1060 nM; in assay [5] (setting [7]), 10600 nM.
For `O=C(CBr)Oc1ccc2c(=O)c(-c3ccc(O)cc3)coc2c1` [Compound 17, 7-O-daidzein-2-bromoacetate], in that order: “less potent inhibitors relative to daidzin”, 1800 nM and 20000 nM.
In the case of `CN(C)CCC(=O)Oc1ccc2c(=O)c(-c3ccc(O)cc3)coc2c1` [Compound 18, 7-O-daidzein-3-dimethylaminopropionate], in assay [5], the “ALDH-2 inhibitory potency, in words” value is “less potent inhibitors relative to daidzin”. Also, the Ki in assay [5] (setting [6]) was found to be 1750 nM; in assay [5] (setting [7]), 24000 nM.
Regarding `O=c1c(-c2ccc(O)cc2)coc2c([C@@H]3O[C@H](CO)[C@@H](O)[C@H](O)[C@H]3O)c(O)ccc12` [Compound 20, Puerarine], the “inhibition of 5-HIAA formation” value in assay [2] is listed as “does not inhibit 5-HIAA formation”. In addition, in assay [1], the “ETOH Intake Suppression, %” value came out at 0% and the “suppression of hamster ethanol intake” value was “do not exert any significant effect on ethanol intake”. For the same compound, in assay [1] (hamsters), the “suppression of ethanol consumption in hamsters, in words” value is listed as “not hamsters”. Further, the “inhibition of 5-HIAA formation” value with rat liver mitochondria was “does inhibit 5-HIAA formation”. In addition, the “suppression of ethanol consumption in rats” value in the assay on rats was “suppresses ethanol consumption in rats”.
As to `O=c1cc(-c2ccccc2)oc2cc(O)cc(O)c12` [Compound 21, Chrysin, reference compound], in assay [1], the “ETOH Intake Suppression, %” value is 0%. For the same compound, the Ki amounted to 35000 nM in assay [5] (setting [6]) and 110000 nM in assay [5] (setting [7]).
As to `O=c1cc(-c2ccccc2)oc2c(O)c(O)ccc12` [Compound 22, 7,8-Dihydroxyflavone], in assay [1], the ethanol intake suppression result is recorded as “did not suppress ethanol intake”; the “ETOH Intake Suppression, %” value came to 0%; the “suppression of hamster ethanol intake” value is reported as “do not exert any significant effect on ethanol intake”. The Ki in assay [5] (setting [6]) turned out to be 35000 nM. In addition, in assay [5] (setting [7]), the Ki amounted to 270000 nM.
`C=CCOc1ccc2c(=O)c(-c3ccc(O)cc3)coc2c1` [allyl]: the ethanol intake suppression result in assay [1] is listed as “did not suppress ethanol intake”.
Turning to `O=c1c(-c2ccc(O)cc2)coc2cc(O)cc(O)c12` [genestein], the ethanol intake suppression result in assay [1] is “did not suppress ethanol intake”.
